Data: a melting point compilation (Tetko et al.; mined from patent text by program, amines drawn as free bases though some values may be those of a salt)

Row | SMILES | melting point [°C]
1 | O=[N+]([O-])c1cc(NCCO)c(Cl)cc1NCCO | 127 to 128
2 | COc1ccc(OC)c(C2=Nc3ccc(N4CCCC4)cc3C(=O)C2)c1 | 272 to 274
3 | O=S(=O)(CCCl)CCCS(=O)(=O)CCCl | 142 to 146
4 | CC1Cc2cc(Br)cc(S(N)(=O)=O)c2O1 (configuration not stated) | 167 to 169
5 | COC(=O)NC1=NC(c2ccc(C(C)C)cc2)CCN1 (configuration not stated) | 195 to 197
6 | COc1c(OC)c(OC)c2c(c1OC)c(=O)c1ccc(OCc3ccccc3)c(OC)c1n2C | 127 to 128
7 | Cc1cccc2c1NC(C(Cl)(Cl)Cl)OC2 (configuration not stated) | 69 to 70
8 | CCOC(=O)Nc1cccc(CBr)c1C(=O)OCC | 70 to 72
9 | Cc1c(Br)cc(NC(=O)c2cccc(CSc3cnccn3)c2)cc1Br | 119 to 127
10 | C=CC(=O)NCCOc1ccc2c(c1)nc(N)c1nc(CCC)sc12 | 200 to 202
11 | Oc1cccc(-c2nc3cccc(CBr)c3o2)c1 | 225 to 228
12 | COc1ccccc1NC(=O)N1CCC(=O)C(C(c2ccccc2)c2ccccc2)C1 (configuration not stated) | 150 to 151
13 | O=C(O)CN(CC(=O)O)c1nc(N(CC(=O)O)CC(=O)O)nc(N(CC(=O)O)CC(=O)O)n1 | 246 to 249
14 | CCOC(=O)c1c(C(F)(F)F)nc(C(F)(F)F)c(C)c1OC(C)C | 53 to 55
15 | Oc1cnc(-c2ccccc2)c(F)c1 | 150 to 151
16 | CCOC(=O)C(=O)Nc1ccc(S(N)(=O)=O)cc1[N+](=O)[O-] | 193 to 195
17 | CCc1cc(Br)cc2c1C(=O)C(=O)N2 | 229 to 230
18 | CCOC(=O)C1=C(C)NC(c2csc(C)n2)=NC1c1ccc(F)cc1Cl (configuration not stated) | 123 to 125
19 | O=C1c2ccccc2-c2c1c1cc3c(cc1c(=O)n2CCCNS(=O)(=O)c1ccccc1)OCO3 | 225 to 226
20 | Cc1nc(-n2ccc(OCc3ccc(F)cc3)cc2=O)sc1C(=O)NCc1ccc(F)cc1 | 249 to 251
21 | CCc1c(C)[nH]c(=O)c(N(C)C)c1Cc1cc(C)cc(C)c1 | 229 to 230
22 | Clc1ccc(I)cc1CBr | 94 to 95
23 | CC1(C)C2CCC3(C2)C1c1ncncc1CC3(C)C (configuration not stated) | 44 to 45
24 | Nc1nc(N)c(NC=O)c(Cl)n1 | > 300

Row | SMILES | melting point [°C]
25 | CN(C(=O)Nc1ccc(Cl)cc1)n1cnc2ccccc2c1=O | 186 to 188
26 | Cn1nnnc1CC(=S)NCCc1ccc(OCc2ccccc2)c(OCc2ccccc2)c1 | 110
27 | OCc1cnoc1-c1cccc(Cl)c1 | 80 to 81
28 | OCc1ccc2oc(-c3cccs3)nc2c1 | 158 to 159
29 | COc1cc(C=CC(=O)C=Cc2ccc(OC(C)=O)c(OC)c2)ccc1OC(C)=O | 150
30 | CCOC(=O)COc1cccc(-c2cc(O)c(SCCc3ccccc3)c(=O)o2)c1 | 116 to 119
31 | O=S(=O)(F)c1ccc(N=Nc2ccc(O)c(Cl)c2)cc1 | 133 to 134
32 | O=C1c2ccccc2S(=O)(=O)N1CS(=O)(=O)c1c(Cl)cccc1Cl | 201 to 203
33 | COc1ccc2c(c1)CCC1C2CCC2(C)C(=O)CC(C)C12 (configuration not stated) | 127 to 129
34 | O=C1c2cc(Cl)ccc2-n2cnc(Cl)c2[C@@H]2CCCN12 | 209 to 210
35 | O=C(Nc1ccc(-n2nc(C(F)(F)F)cc2C2CC2)c(F)c1)C1(c2ccccc2)CCC1 | 72 to 76
36 | CS(=O)(=O)NCCn1c(=O)c(-c2cccs2)nc2ccccc21 | 236 to 237
37 | Cc1ccc(S(=O)(=O)Oc2ccc3c4c(nn3CCNCCO)-c3cnccc3C(=O)c24)cc1 | 131 to 133
38 | O=C(NCl)c1c(C(F)(F)F)cc(Cl)nc1Cl | 136 to 138
39 | CC(C(=O)O)c1ccc2c(=O)c3ccccc3ccc2c1 (configuration not stated) | 108 to 110
40 | O=C(Nc1ccc(Cl)cc1)OCCOc1ccc(Oc2ccccc2)cc1Cl | 155 to 156
41 | Cc1c(SCc2ccc(C(C)(C)C)cc2)cnn(C(C)(C)C)c1=O | 91 to 92
42 | CN(C)C(=O)c1ccncc1-c1nc(-c2ccc(Cl)cc2)cs1 | 195
43 | CC(C)(C)[C@H](NC(=O)[C@@H](CC(=O)O)n1ccc(-c2ccc(-c3ccc(C(N)=O)cc3)cc2)c1)C(=O)Nc1ccncc1 | 194 to 196
44 | Cc1cc2c(c3ccc(=O)[nH]c13)OC(CSCCN(C)C)C2 (configuration not stated) | 163 to 165
45 | Cc1nsc2ccc([N+](=O)[O-])cc12 | 124 to 125
46 | Nc1nc(-c2ccc([N+](=O)[O-])o2)ns1 | 168 to 170
47 | N#Cc1ccc(CCN2CCC(NC(=O)C34CC5CC(CC(C5)C3)C4)C2)cc1 (configuration not stated) | 104 to 105
48 | COc1ccc(OC)c(CC(NC(=O)CC(C2CCCCC2)C2CCCCC2)C(=O)OC(C)(C)C)c1 (configuration not stated) | 108 to 111

Row | SMILES | melting point [°C]
49 | CCNC(=S)NC1=Nc2ccc(OC(F)(F)F)cc2CS1 | 169 to 172
50 | O=C1CCCc2nc3ccccc3c(NCc3ccc(F)cc3)c21 | 158 to 159
51 | O=C1c2ccccc2C(=O)c2c(O)c3c(c(O)c21)CCCC3 | 194 to 196
52 | COC(C(=O)O)c1ccc2c(c1)C(C)(C)CCC2(C)C (racemic) | 135 to 136
53 | O=CC(Cc1ccccc1)N1C(=O)c2ccccc2C1=O (configuration not stated) | 115 to 117
54 | CS(=O)(=O)c1ccc(Nc2ccn(-c3ccccc3)n2)cc1 | 185 to 187
55 | Cc1ccc(C(O[Si](C)(C)C(C)(C)C)C(=O)N2CCOCC2)cc1 (configuration not stated) | 64 to 65
56 | CN1CCc2c(cccc2NC(=O)c2ccccc2I)C1 | 215 to 216
57 | Cn1c([N+](=O)[O-])cnc1C1=NO[C@@H]2CCCCCC[C@@H]12 (relative stereo) | 106 to 109
58 | CC(C)c1cc(C(C)C)cc(N(Cc2cccc(NC(=N)c3cccs3)c2)C(=O)CCc2cc(C(C)C)c(O)c(C(C)C)c2)c1 | 144 to 145
59 | CC(C)c1ccc2ncn(/C=C/C(=O)NCCNCc3ccccn3)c(=O)c2c1 | 91 to 95
60 | O=CNc1cccc2ccccc12 | 134 to 135
61 | CC(C)(C)[Si](C)(C)Oc1cccc(C2(Br)C(=O)NC(=O)NC2=O)c1 | 170 to 172
62 | CCCOc1c(OC)cc(C(=O)O)cc1[N+](=O)[O-] | 121 to 123
63 | COC(=O)c1cc(-c2ccccn2)n(-c2ccc(Cl)nn2)n1 | 164 to 165
64 | COC(CNC1=Nc2ccccc2Nc2ccccc21)OC | 181 to 182
65 | O=C1Nc2c(ccc3ccccc23)OC1c1ccc(Cl)cc1 (configuration not stated) | 230 to 232
66 | O=C(O)COc1ccc(SCc2ccc(OC3CCc4cc(Cl)ccc43)cc2)c2c1CCC2 (configuration not stated) | 169 to 170
67 | CC(=O)OC1C(Oc2cccc(O)c2C(=O)CCc2ccc3occc3c2)OC(CO)C(O)C1OC(C)=O (configuration not stated) | 127 to 129
68 | O=S(=O)(F)c1ccc(OCc2ccccc2)nn1 | 85 to 86
69 | CCOC(=O)c1cn(C2CC2)c2cc(F)c(F)cc2c1=O | 189 to 191
70 | CN(C)c1cccc(Oc2cccc(-c3cccc(C(=O)NCCC#N)c3)n2)c1 | 95 to 96

Now from value to compound:

Row | melting point [°C] | SMILES
71 | 129 to 131 | COC(=O)CCc1cc2cc(Cl)ccc2n1S(=O)(=O)c1ccc(F)cc1
72 | 223 to 225 | Nc1ncc(-c2cnc3ccc(-c4ccc(OCC5(CNC(=O)C6CC6)COC5)cc4)nn23)cc1C(F)(F)F
73 | 161 to 163 | CC(C)(C)c1cc(CNn2ccnc2N2CCOCC2)cc(C(C)(C)C)c1O
74 | 154 to 157 | CC1(c2ccccc2)OC(=O)C(Cl)(Cl)C(C(Cl)(Cl)Cl)N1OC(=O)Nc1ccccc1 (configuration not stated)
75 | 149 | Cc1nn(C(=O)NCC2CC2(Cl)Cl)c(=O)n1N (configuration not stated)
76 | 141 to 144 | OC(c1ccccc1)C(NCc1ccco1)c1ccccc1 (configuration not stated)
77 | 75.5 to 78.5 | CC(C)C(CNC(=O)OCc1ccccc1)C(=O)O (configuration not stated)
78 | 180 to 182 | CCOC(=O)c1c(Cn2cncn2)nc2sc3ncccc3c2c1-c1ccc(OC)c(OC)c1
79 | 97 | CCCc1ccc(CCc2ccc(-c3ccc(F)cc3)cc2)cc1
80 | 106 | COc1cc(C(=O)c2ccc(N)c(C(=O)O)c2)n2ccccc12
81 | 240 to 242 | COc1ccccc1-n1c(=O)[nH]c2ccc(-c3cccc(O)c3)nc21
82 | > 270 | O=C(O)c1cc2cc3[nH]c(=O)[nH]c3cc2[nH]1
83 | 140 to 141 | CCS(=O)(=O)c1cc2c(c(C(=O)NCC3CCCN3C)c1)OCCO2 (configuration not stated)
84 | 116 to 117 | CC1Cc2cc3c(cc2C(c2ccc(Cl)cc2)=NN1c1nccs1)OCO3 (configuration not stated)
85 | 216 to 218 | NC(=O)N(O)Cc1cc(-c2ccc(Cl)cc2)n(-c2ccc(S(N)(=O)=O)cc2)n1
86 | 75 to 76 | O=C(c1ccc(I)cc1)C1(c2ccccc2F)CO1 (configuration not stated)

Row | melting point [°C] | SMILES
87 | 152 to 154 | Cc1cc(C)c2c(c1O)CCC2=O
88 | 211 to 212 | C=CCNc1nc(NC)c2cc([N+](=O)[O-])ccc2n1
89 | 117 to 120 | O=C(NCCCCCCOC(=O)Oc1ccc([N+](=O)[O-])cc1)OC1CCN(C(=O)Oc2ccc(Oc3ccccc3)cc2)CC1
90 | 225 to 227 | CCSc1cc(C(=O)O)cc(S(N)(=O)=O)c1Oc1ccccc1
91 | 40 to 41 | COC(=O)Cc1ccc(C#N)cc1
92 | 173 to 174 | COc1cc(Cl)c(-n2nnc3c(-c4ccccc4C)nc(C)nc32)c(OC)c1
93 | 136 to 139 | COc1ccc2c(cc(CCC(=O)O)n2S(=O)(=O)c2ccccc2)n1
94 | 125 to 126 | COc1ccc(C(=O)c2ccc(Br)cc2)c(F)c1
95 | 114 to 116 | CCOC(=O)c1cnn(-c2ccc(OC(F)(F)F)cc2)c1
96 | 167 to 168 | CCCCNC(=O)NS(=O)(=O)CCc1c(C2CC2)nn(C)c1-n1ccc2cc(Cl)cnc21
97 | 96 to 97 | CCCCCS(=O)(=O)NC(=O)CCCc1ccc(OCCOCC)cc1Oc1ncc(C(F)(F)F)cc1Cl
98 | 183 to 185 | CC(C)(C)OC(=O)N1CCn2c(c(C(N)=O)c(Cl)c2-c2ccccc2)C1
99 | 184 to 186 | CNC(=O)C(C#N)C(=O)Nc1ccc(C(F)(F)F)cc1 (configuration not stated)
100 | 285 to 286 | Cc1[nH]c(=O)n(C)c1-c1cc(C(C)(C)C)c(O)c(C(C)(C)C)c1
101 | 120 to 121 | O=Cc1nn(-c2ccc(Br)cc2)c2c1CCCC2
102 | 76 to 78 | CCCCCCCCCCCCCCCCCCOc1cc(OCCOCCOCCOCC)cc(N(CC(=O)O)CC(=O)O)c1
